Experimental data: PubChem BioAssay (NCI)
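Results reflect a 48-hour exposure of cells in 96-well plates to compound at five concentrations. GI50 is the concentration that inhibits growth by half. The concentration for full growth arrest is given as TGI.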

How the values were obtained:
Test in all cases: inhibition of tumour cell growth, NCI panel, 48 h
[1] = test system: 786-0 renal
[2] = test system: HL-60(TB) leukemia
[3] = test system: HT29 colon
[4] = test system: RXF 393 renal
[5] = test system: NCI/ADR-RES ovarian
[6] = test system: T-47D breast
[7] = test system: TK-10 renal
[8] = test system: SR leukemia
[9] = test system: OVCAR-8 ovarian
[10] = test system: SN12C renal
[11] = test system: NCI-H226 lung
[12] = test system: SF-268 CNS
[13] = test system: MALME-3M melanoma
[14] = test system: IGROV1 ovarian
[15] = test system: A498 renal
[16] = test system: UO-31 renal
[17] = test system: CAKI-1 renal
[18] = test system: HS 578T breast
[19] = test system: UACC-257 melanoma
[20] = test system: NCI-H522 lung
[21] = test system: UACC-62 melanoma
[22] = test system: OVCAR-3 ovarian
[23] = test system: COLO 205 colon
[24] = test system: ACHN renal
[25] = test system: OVCAR-4 ovarian
[26] = test system: MOLT-4 leukemia
[27] = test system: BT-549 breast
[28] = test system: SK-MEL-2 melanoma
[29] = test system: A549 NSCLC
[30] = test system: HCT-15 colon
[31] = test system: EKVX NSCLC
[32] = test system: SK-MEL-5 melanoma
[33] = test system: DU-145 prostate
[34] = test system: SF-295 CNS
[35] = test system: PC-3 prostate
[36] = test system: HCC-2998 colon
[37] = test system: SW-620 colon
[38] = test system: CCRF-CEM leukemia
[39] = test system: MDA-MB-231 breast
[40] = test system: OVCAR-5 ovarian
[41] = test system: NCI-H460 lung
[42] = test system: SF-539 CNS
[43] = test system: SK-OV-3 ovarian
[44] = test system: M14 melanoma
[45] = test system: NCI-H23 lung
[46] = test system: SNB-75 CNS
[47] = test system: HCT-116 colon
[48] = test system: SK-MEL-28 melanoma
[49] = test system: SNB-19 CNS
[50] = test system: RPMI-8226 leukemia
[51] = test system: U251 CNS
[52] = test system: MCF7 breast
[53] = test system: LOX IMVI melanoma
[54] = test system: K-562 leukemia
[55] = test system: MDA-MB-435
[56] = test system: HOP-62 NSCLC
[57] = test system: KM12 colon

## Cc1ccc(S(=O)(=O)n2cc(-c3nnnn3-c3ccc(Cl)cc3)c(=O)c3ccccc32)cc1
[1]
  GI50: > 100 µM
  TGI: > 100 µM
[2]
  GI50: 12.9 µM
  TGI: 31 µM
[3]
  GI50: 57.7 µM
  TGI: > 100 µM
[4]
  GI50: 29.6 µM
  TGI: > 100 µM
[5]
  GI50: > 100 µM
  TGI: > 100 µM
[6]
  GI50: 57.9 µM
  TGI: > 100 µM
[7]
  GI50: > 100 µM
  TGI: > 100 µM
[8]
  GI50: 40.9 µM
  TGI: > 100 µM
[9]
  GI50: > 100 µM
  TGI: > 100 µM
[10]
  GI50: > 100 µM
  TGI: > 100 µM
[11]
  GI50: > 100 µM
  TGI: > 100 µM
[12]
  GI50: > 100 µM
  TGI: > 100 µM
[13]
  GI50: > 100 µM
  TGI: > 100 µM
[14]
  GI50: > 100 µM
  TGI: > 100 µM
[15]
  GI50: 77.3 µM
  TGI: > 100 µM
[16]
  GI50: 52.5 µM
  TGI: > 100 µM
[17]
  GI50: > 100 µM
  TGI: > 100 µM
[18]
  GI50: > 100 µM
  TGI: > 100 µM
[19]
  GI50: > 100 µM
  TGI: > 100 µM
[20]
  GI50: 41.3 µM
  TGI: > 100 µM
[21]
  GI50: 54.8 µM
  TGI: > 100 µM
[22]
  GI50: > 100 µM
  TGI: > 100 µM
[23]
  GI50: 93 µM
  TGI: > 100 µM
[24]
  GI50: > 100 µM
  TGI: > 100 µM
[25]
  GI50: 53.7 µM
  TGI: > 100 µM
[26]
  GI50: 21.2 µM
  TGI: 57 µM
[27]
  GI50: > 100 µM
  TGI: > 100 µM
[28]
  GI50: > 100 µM
  TGI: > 100 µM
[29]
  GI50: 76.3 µM
  TGI: > 100 µM
[30]
  GI50: > 100 µM
  TGI: > 100 µM
[31]
  GI50: > 100 µM
  TGI: > 100 µM
[32]
  GI50: 70.6 µM
  TGI: > 100 µM
[33]
  GI50: > 100 µM
  TGI: > 100 µM
[34]
  GI50: 52.9 µM
  TGI: > 100 µM
[35]
  GI50: 57.3 µM
  TGI: > 100 µM
[36]
  GI50: > 100 µM
  TGI: > 100 µM
[37]
  GI50: > 100 µM
  TGI: > 100 µM
[38]
  GI50: 43.4 µM
  TGI: > 100 µM
[39]
  GI50: > 100 µM
  TGI: > 100 µM
[40]
  GI50: > 100 µM
  TGI: > 100 µM
[41]
  GI50: 81.9 µM
  TGI: > 100 µM
[42]
  GI50: > 100 µM
  TGI: > 100 µM
[43]
  GI50: > 100 µM
  TGI: > 100 µM
[44]
  GI50: 49.5 µM
  TGI: > 100 µM
[45]
  GI50: > 100 µM
  TGI: > 100 µM
[46]
  GI50: 39.6 µM
  TGI: > 100 µM
[47]
  GI50: 45.9 µM
  TGI: > 100 µM
[48]
  GI50: > 100 µM
  TGI: > 100 µM
[49]
  GI50: > 100 µM
  TGI: > 100 µM
[50]
  GI50: 21.9 µM
  TGI: 59 µM
[51]
  GI50: 88.6 µM
  TGI: > 100 µM
[52]
  GI50: 80.6 µM
  TGI: > 100 µM
[53]
  GI50: > 100 µM
  TGI: > 100 µM
[54]
  GI50: 20.1 µM
  TGI: > 100 µM
[55]
  GI50: > 100 µM
  TGI: > 100 µM
[56]
  GI50: 73.6 µM
  TGI: > 100 µM
[57]
  GI50: > 100 µM
  TGI: > 100 µM
